According to US4762828A, “1,2,4-triazolo[4,3-d]-4-azatricyclo-[4.3.1.1^3,8 ]undecane and 3-substituted derivatives, and intermediates thereof” (Pennwalt Corporation, priority 1987, dated 1988):

Columns and labels:
[1] = test system: carrageenan-induced rat paw edema; experiment: carrageenan-induced rat paw edema assay (anti-inflammatory activity); format: in vivo, male Sprague Dawley rats; settings: for % Inhibition: oral, control 63.9% edema; for anti-inflammatory activity (in words): administered orally
Experimental: Anti-inflamatory activity was determined by carragenaninduced paw edema of laboratory rats. Groups of six male Sprague Dawley rats orally received compound suspended in a 1% aqueous solution of Methocel brand methylcellulose. Control rats received a 0.5% aqueous solution of Methocel only. Two hours later, each rat received a subcutaneous injection of 0.1 ml of a 1% homogenized suspension of carrageenan in the plantar surface of the right hind paw.
Immediately, the volume of the paw was measured by immersing it in mercury to above the lateral mateolus. The mercury in a glass cylinder 25 mm in diameter and 60 mm deep was connected at the bottom on the cylinder by a column of water to a Statham transducer (model P23BB), range 0-5 cm of mercury pressure. The volume was recorded electronically on a Beckman recorder, R511. Three hours later, the inflamed paw volume was measured again, and the change in volume was recorded for each group. Indomethacin,a known anti-inflamatory agent, was included as a standard.

minimal neurotoxic dose = experiment: minimal neurotoxic dose; design: species or system mice; settings: mouse, in vivo, ip
mice [2] = experiment: antihypoxia test: survival duration of mice in a normobaric atmosphere of 96% nitrogen and 4% oxygen at 35° C; format: in vivo; settings: for Survival Minutes, Compound: N=5, 35° C.
Experimental: N^1 = Number of mice in each group
NS = Not significant, P >0.05
ip = intraperitoneal administration
iv = intravenous administration
The antihypoxia test measures the survival duration of mice in a normobaric atmosphere consisting of 96% nitrogen and 4% oxygen, at 35° C. The mice are considered dead when they stop visible respiration. The test indicates potential clinical utility in situations of central nervous system hypoxia, such as occurs following stroke, cardiac arrest, and traumatic accidents.

mice [3] = experiment: estimated LD50; settings: ip

SMILES | % Inhibition ([1]; 25.0 mg/kg) [%] | % Inhibition ([1]; 50.0 mg/kg, Hydroiodide) [%] | % Inhibition ([1]; 100.0 mg/kg) [%] | anti-inflammatory activity (in words) [1] | % Inhibition ([1]; 4.0 mg/kg) [%] | minimal neurotoxic dose (minimal neurotoxic dose) [mg/kg] | Survival Minutes, Compound (mice [2]; 1 mg/kg iv, control 2.36, P NS) [min] | Survival Minutes, Compound (mice [2]; 1.5 mg/kg iv, control 2.30, P NS) [min] | prolonged the survival time of mice in the antihypoxia test (mice [2]; 6 mg/kg (i.p.)) | Survival Minutes, Compound (mice [2]; 6 mg/kg ip, control 2.08, P =0.04) [min] | Estimated LD50 (mice [3]) [mg/kg] | % Inhibition ([1]; 50.0 mg/kg) [%]
c1nnc2n1C1CC3CC(CC2C3)C1 [Example 1, 1,2,4-Triazolo[4,3-d]-4-azatricyclo[4.3.1.1^3,8]undecane Hydroiodide] | 17.0 | 43.4 | 56.6 | demonstrated activity |  |  |  |  |  |  |  | 
COc1ccc2c(c1)c(CC(=O)O)c(C)n2C(=O)c1ccc(Cl)cc1 [Indomethacin, reference compound] |  |  |  |  | 52.8 |  |  |  |  |  |  | 
c1nnc2n1C1CC3CC(CC2C3)C1 [Example 2, 1,2,4-Triazolo[4,3-d]-4-azatricyclo[4.3.1.1^3,8]undecane] | 17.0 |  |  | demonstrated activity |  | 6 | 2.34 | 3.02 | more than 2 fold | 5.78 | 12 | 28.3
